Test system: LL/2 lung cancer tumor endothelial cells
Assay: Lung LL2 ex vivo model of tumor angiogenesis
Assay type: cell-based, mouse
Settings: for 48 hrs (morphology observations): LL/2 tumor endothelial cells; for Cell death: drug treatment for two days, ratio of red area to total endothelial cell area
Method: An ex vivo tumor angiogenesis model was developed to test the efficacy of anti-cancer candidate agents. The following protocol describes the Ex Vivo Tumor Angiogenesis Model.
• 1. The day before the experiment, all necessary tools were sprayed with 70% ethanol and sterilized under UV light overnight, including blade, dissecting and micro-dissecting scissors and […]. 24-well dishes were placed at 4° C. to pre-chill plates and Matrigel was thawed, 24 hours before tumor dissection. • 2. 70% ethanol was sprayed on working bench. Two sterile petri dishes were prepared with 10 ml sterile PBS. The following steps 3 and 4 are necessary for mouse tumor models. For fresh human tumor, steps 3 and 4 are skipped. • 3. The tumor-bearing mice were euthanized. 70% ethanol was sprayed on the mouse and the tumor was removed using sterilized dissecting tools (avoid the fur). The tumor was rinsed in petri dish with sterile PBS to remove ethanol and fur. The tumor was transferred to a new petri dish with PBS for dissection. The dish is placed on ice. • 4. Pre-chilled sterile pipet tips were used to seed regular Matrigel in 24 well plates on ice. Matrigel (30 μl) was dropped in the middle of each well without touching the edge of the well (avoid introducing bubbles if possible). • 5. The tumor was cut in halves using the sterile blade. Healthy tumor tissue that is not necrotic and is within the tumor capsule was identified and isolated. The healthy tumor tissue was cut into small pieces. For instance, a suitable size for the tumor tissue is 0.5 mm (H)×0.5 mm (L)×0.3 mm (D) with a total volume of 0.075 mm^3. • 6. Each tumor piece was gently transferred and embedded in the Matrigel drop in the 24-well plate. The embedded piece was placed in the bottom and middle of each Matrigel drop. The plate was kept on ice all the time. • 7. After seeding the tumor pieces, plates were incubated in a 37° C. cell culture incubator without medium for 10 minutes in order for the Matrigel to solidify. • 8. Endothelial Growth Medium (0.5 ml) was added to each well and incubated at 37° C. with 5% CO2. Treatment was not added until the new endothelial cells was grown out of the tumor or were larger than 3 mm in diameter. This usually takes 4 days for the LL2 Lewis lung cancer model and 7 days for the CT26 colon cancer model. For human tumor models, the growth time is typically 2-3 weeks, depending on the tumor type. Media was changed every 4 days during prolonged culture. Typically, when the tumor tissue grows to 2 mm in diameter, it was good for drug testing. A size of about 3 mm in diameter can make visualization easier. • 9. When the assay was ready to be analyzed for cell death (e.g., 48 hours after drug addition), the dye mixture was prepared by mixing 6 μl of green dye to stain live cells (5 mg/ml Fluorescein diacetate or FDA in DMSO) with 30 μl of red dye (2.5 mg/ml Propidium iodide or PI in PBS) to stain dead cells in an Eppendorf tube. The FDA dye needs to be stored frozen in a −20° C. freezer because it has a labile ester bond. • 10. 1 μl of the dye mixture was added to each well of the 24-well dish. It is usually preferred to do one 24-well dish at a time given the amount of time needed to take pictures (the green dye is not as stable in the cells in the long term). • 11. The dish was gently rocked a few times to mix the dye with the media in the wells and incubate the dish at 37° C. for 10 min (too long incubation can make the green signal too intense). • 12. Each well was washed with 0.5 ml of sterile PBS and then 0.5 ml of phenol red free SFM was added to each well. Alternatively 0.5 ml of regular Endothelial Cell Growth Media can be added to each well if this well needs to be continuously maintained after the experiment. • 13. An inverted microscope using the 2× objective lens was used to observe morphological changes in the experimental wells. • 14. […]

[1] = Mus musculus, Endothelial cell, 48 h, read-out: Cell death

Row | Structure (SMILES) | 48 hrs (morphology observations) (20 μm) | Cell death (20 μm) [%] | 48 hrs (morphology observations) (10 μm) | also measured
1 | CCCCOc1ccc(S(=O)(=O)c2cnc3ccc(C(=O)OCC)cc3c2N2CCC(N3CC[S+]([O-])CC3)CC2)cc1 [Compound 244] |  |  |  | 48 hrs (morphology observations) (40 μm): 0; cytotoxicity at 40 µM [1]: 20%
2 | CCCCOc1ccc(S(=O)(=O)c2cnc3ccc([S+](C)[O-])cc3c2N2CCC(N3CCSCC3)CC2)cc1 (stereo not shown) [Compound 245] |  |  |  | 48 hrs (morphology observations) (40 μm): 0; Cell death (40 μm): 40%
3 | CCCCCCCOc1ccc(S(=O)(=O)c2cnc3ccc(SC)cc3c2N2CCC(N3CCN(C)CC3)CC2)cc1 [Compound 246] | *** (more than 50% but less than 100% of endothelial cells vesicularize in cell shape) | 95 |  | 
4 | CCCCCCCOc1ccc(S(=O)(=O)c2cnc3ccc(SC)cc3c2N2CCC(N3CCCC(O)C3)CC2)cc1 (stereo not shown) [Compound 247] | *** (more than 50% but less than 100% of endothelial cells vesicularize in cell shape) | 60 |  | 
5 | CCCCCCCOc1ccc(S(=O)(=O)c2cnc3ccc(SC)cc3c2N2CCCN(CCN3CCCCC3)CC2)cc1 [Compound 248] | * (50% or less of cells vesicularize in cell shape) | 60 |  | 
6 | CCCCCCCOc1ccc(S(=O)(=O)c2cnc3ccc(SC)cc3c2N2CCC(N3CCCN(C)CC3)CC2)cc1 [Compound 249] | *** (more than 50% but less than 100% of endothelial cells vesicularize in cell shape) | 60 |  | 
7 | CCCCCCCOc1ccc(S(=O)(=O)c2cnc3ccc(SC)cc3c2N2CCC(N3CCN(CCO)CC3)CC2)cc1 [Compound 250] | *** (more than 50% but less than 100% of endothelial cells vesicularize in cell shape) | 90 |  | 
8 | CCCCCCCOc1ccc(S(=O)(=O)c2cnc3ccc(SC)cc3c2N2CCC(N3CCC(N4CCCCC4)CC3)CC2)cc1 [Compound 251] | *** (more than 50% but less than 100% of endothelial cells vesicularize in cell shape) | 60 |  | 
9 | CCCCCCCOc1ccc(S(=O)(=O)c2cnc3ccc(SC)cc3c2N2CCC(N3CCC(O)(c4ccccc4)CC3)CC2)cc1 [Compound 262] |  |  | 0 | Cell death (10 μm): 20%
10 | CCCCCCCOc1ccc(S(=O)(=O)c2cnc3ccc([S+](C)[O-])cc3c2N2CCC(N3CCC(O)(c4ccccc4)CC3)CC2)cc1 (stereo not shown) [Compound 263] |  |  | **** (100% of endothelial cells vesicularize in cell shape and look flattened in morphology (indicating disintegration of the cell body)) | 
11 | CCCCCCCCCCOc1ccc(S(=O)(=O)c2cnc3ccc([S+](C)[O-])cc3c2N2CCC(N3CCN(C)CC3)CC2)cc1 (stereo not shown) [Compound 264] |  |  | * (50% or less of cells vesicularize in cell shape) | Cell death (10 μm): 20%
12 | CCCCCCCCCCOc1ccc(S(=O)(=O)c2cnc3ccc([S+](C)[O-])cc3c2N2CCC(N3CCCC(O)C3)CC2)cc1 (stereo not shown) [Compound 265] |  |  | * (50% or less of cells vesicularize in cell shape) | Cell death (10 μm): 20%
13 | CCCCCCCCCCOc1ccc(S(=O)(=O)c2cnc3ccc([S+](C)[O-])cc3c2N2CCCN(CCN3CCCCC3)CC2)cc1 (stereo not shown) [Compound 266] |  |  | 0 | Cell death (10 μm): 5%
14 | CCCCCCCCCCOc1ccc(S(=O)(=O)c2cnc3ccc([S+](C)[O-])cc3c2N2CCC(N3CCCN(C)CC3)CC2)cc1 (stereo not shown) [Compound 267] |  |  | 0 | Cell death (10 μm): 5%
15 | CCCCCCCCCCOc1ccc(S(=O)(=O)c2cnc3ccc([S+](C)[O-])cc3c2N2CCC(N3CCN(CCO)CC3)CC2)cc1 (stereo not shown) [Compound 268] | *** (more than 50% but less than 100% of endothelial cells vesicularize in cell shape) | 50 |  | 
16 | CCCCCCCCCCOc1ccc(S(=O)(=O)c2cnc3ccc([S+](C)[O-])cc3c2N2CCC(N3CCC(N4CCCCC4)CC3)CC2)cc1 (stereo not shown) [Compound 269] | **** (100% of endothelial cells vesicularize in cell shape and look flattened in morphology (indicating disintegration of the cell body)) | 100 |  | 

Row | Structure (SMILES) | 48 hrs (morphology observations) (20 μm) | Cell death (20 μm) [%] | 48 hrs (morphology observations) (10 μm) | also measured
17 | CCCCCCCCCCOc1ccc(S(=O)(=O)c2cnc3ccc([S+](C)[O-])cc3c2N2CCC(N3CCC(O)(c4ccccc4)CC3)CC2)cc1 (stereo not shown) [Compound 270] | * (50% or less of cells vesicularize in cell shape) |  |  | 
18 | CCCCCCCOc1ccc(S(=O)(=O)c2cnc3ccc(SC)cc3c2N2CCN(CCN3CCCC3)CC2)cc1 [Compound 272] | * (50% or less of cells vesicularize in cell shape) | 20 |  | 
19 | CCCCCCCOc1ccc(S(=O)(=O)c2cnc3ccc(SC)cc3c2N2CCN(C3CCN(C)CC3)CC2)cc1 [Compound 273] | *** (more than 50% but less than 100% of endothelial cells vesicularize in cell shape) |  |  | cytotoxicity at 20 µM [1]: 60%
20 | CCCCCCCOc1ccc(S(=O)(=O)c2cnc3ccc(SC)cc3c2N2CCN(C3CCN(Cc4ccccc4)C3)CC2)cc1 (stereo not shown) [Compound 274] | 0 | 10 |  | 
21 | CCCCCCCOc1ccc(S(=O)(=O)c2cnc3ccc(SC)cc3c2N2CCN(CC3CCN(Cc4ccccc4)CC3)CC2)cc1 [Compound 275] | 0 | 5 |  | 
22 | CCCCCCCOc1ccc(S(=O)(=O)c2cnc3ccc([S+](C)[O-])cc3c2N2CCN(CCN3CCCC3)CC2)cc1 (stereo not shown) [Compound 276] | *** (more than 50% but less than 100% of endothelial cells vesicularize in cell shape) | 100 |  | 
23 | CCCCCCCOc1ccc(S(=O)(=O)c2cnc3ccc([S+](C)[O-])cc3c2N2CCN(C3CCN(CC)CC3)CC2)cc1 (stereo not shown) [Compound 277] |  |  |  | cytotoxicity at 10 µM [1]: 60%
24 | CCCCCCCOc1ccc(S(=O)(=O)c2cnc3ccc([S+](C)[O-])cc3c2N2CCN(C3CCN(Cc4ccccc4)C3)CC2)cc1 (stereo not shown) [Compound 278] |  |  | * (50% or less of cells vesicularize in cell shape) | Cell death (10 μm): 50%
25 | CCCCCCCOc1ccc(S(=O)(=O)c2cnc3ccc([S+](C)[O-])cc3c2N2CCN(CC3CCN(Cc4ccccc4)CC3)CC2)cc1 (stereo not shown) [Compound 279] | **** (100% of endothelial cells vesicularize in cell shape and look flattened in morphology (indicating disintegration of the cell body)) | 100 |  | 
26 | CCCCCCCOc1ccc(S(=O)(=O)c2cnc3ccc(SC)cc3c2N2CCN(CCN3CCCCC3)CC2)cc1 [Compound 281] |  | 50 |  | 
27 | CCCCCCCOc1ccc(S(=O)(=O)c2cnc3ccc([S+](C)[O-])cc3c2N2CCN(CCN3CCCCC3)CC2)cc1 (stereo not shown) [Compound 282] |  |  | 0 | Cell death (10 μm): 10%
28 | CCCCCCCCCCOc1ccc(S(=O)(=O)c2cnc3ccc([S+](C)[O-])cc3c2N2CCN(C3CCN(CC)CC3)CC2)cc1 (stereo not shown) [Compound 283] |  |  | 0 | cytotoxicity at 10 µM [1]: 5%
29 | CC(C)CCCC(C)CCOc1ccc(S(=O)(=O)c2cnc3ccc([S+](C)[O-])cc3c2N2CCC(N3CCN(CCO)CC3)CC2)cc1 (stereo not shown) [Compound 284] |  |  | 0 | Cell death (10 μm): 10%
30 | CCCCCCCCCCOc1ccc(S(=O)(=O)c2cnc3ccc([S+](C)[O-])cc3c2N2CCC(N3CCC(N4CCN(C)CC4)CC3)CC2)cc1 (stereo not shown) [Compound 285] |  |  | *** (more than 50% but less than 100% of endothelial cells vesicularize in cell shape) | Cell death (10 μm): 60%
31 | CCCCCCCCCCOc1ccc(S(=O)(=O)c2cnc3ccc([S+](C)[O-])cc3c2N2CCC(N3CCC(N4CCOCC4)CC3)CC2)cc1 (stereo not shown) [Compound 286] |  |  |  | Cell death, read at 24 hrs (20 μm, (24 hrs)): 0%; Endothelial cell morphology score at 24 hrs (20 μm, (24 hrs)): 0

From patent US20250230226A1, “PLXDC1/PLXDC2 ACTIVATORS AND THEIR USE IN THE TREATMENT OF BLOOD VESSEL DISORDERS” (THE REGENTS OF THE UNIVERSITY OF CALIFORNIA, priority 2019, published 2025)
